Experimental data taken from publication PMC6158189, “A pharmacological probe identifies cystathionine β-synthase as a new negative regulator for ferroptosis” (Cell Death & Disease, 2018).

Legend:
[1] = target: T1, human dopa decarboxylase (hDDC) (Homo sapiens, UniProt P20711); assay: purified hDDC enzyme assay; assay type: biochemical
T1 construct: made in house
Method: The IC50 values of CH004 for hCBS-413, hCBS-413 mutants, hCBS-FL, hCSE or hDDC were determined according to the standard assay conditions otherwise indicated.

[2] = target: T2, hCBS (GST-tagged CBS-413) (Homo sapiens, UniProt P35520); assay: surface plasmon resonance (BIAcore T200); assay type: binding; settings: 0.097–12.5 µM injected over hCBS-coated chip; read-out: KD (SPR)
T2 construct: hCBS-413 (a C-terminal truncated hCBS 1–413); made in house; host or cells: E. coli BL21
Method: Surface Plasmon Resonance assays (SPR) with a BIAcore T200 (GE Healthcare, Uppsala, Sweden) were used to observe the direct interaction between inhibitors and hCBS. The SPR assay was performed in running buffer (1× PBS with 0.05% P20) and the purified GST-tagged CBS-413 (500 μg/mL) was immobilized onto a flow cell of a CM5 sensor chip using a GST antibody coupling kit in running buffer. The KD values were determined with the Biacore evaluation 3.1 software.
Figure S2. The mode of action of CH004 in inhibiting hCBS. […] After incubation with DMSO or CH004 at 10 μM for 40 min, hCBS (20 μM) was diluted 200-fold and the activity was measured according to the standard assay protocol (Materials and Methods). The data are presented as percentages of control (CTR; DMSO, 100%) and shown as means ± SDs (n = 5). The effects of 0.05 and 10 μM CH004 on hCBS (100 nM) without pre-incubation were defined as positive control (PC) and negative control (NC), respectively. (B) Inhibition of hCBS by CH004 as a function of PLP concentration with Cys (20 mM) together with Hcys (10 mM) as substrates (non-competitive inhibition constant αKi=15.2 ± 4.9 μM). […] The αKi or αKi’ values were calculated by using the non-linear fitting method for enzyme kinetics in GraphPad Prism 5. […] Dissociation constants for CH004 (KD) were calculated by using Biacore evaluation software (Materials and Methods).

HepG2 cells = assay: intracellular ROS (DCFH-DA, flow cytometry); assay type: cell-based, human; settings: HepG2, 12 h
Method: Fig. 5 In situ reduction of CBS activity and H2S in mitochondria by CH004 is coupled with an increase of intracellular ROS. a, b CH004 dose-dependently elevates ROS levels in both HepG2 (a) and HEK293T cells (b). The cells were treated with CH004 for 12 h or with 1 mM H2O2 for 30 min before the staining with DCFH-DA (Molecular Probes) and the analyzsis by flow cytometry (“Materials and Methods” section). Means ± SDS (n = 3). […] HepG2 cells were incubated with indicated inhibitors for 8 h before staining with the mitochondria tracker Mito-tracker® Green (Invitrogen) and the AzMC probe. Cyan represents the colocalization of H2S (blue) and the mitochondria tracker (green). Bars: 50 μm. d hCBS co-localizes with the mitochondria in HepG2 and HEK293T cells. HepG2 and HEK293T cells were stained with an anti-CBS antibody (3E1, 1:200; Abnova) for hCBS (red), Mito-tracker® Green for the mitochondria (green) and DAPI for the nucleus (blue). […]
To investigate the intracellular ROS levels, HEK293T or HepG2 cells were seeded in 6-well plates for one day, then incubated with the indicated inhibitors and 1 mM H2O2 for 12 h and 30 min, respectively. After trypsinization and one wash in PBS, the collected cells were resuspended in PBS and incubated with 100 μM probe DCFH-DA for 30 min at 37 °C before being analyzed using an LSR Fortessa flow cytometer.

T1 sequence (P20711 whole entry): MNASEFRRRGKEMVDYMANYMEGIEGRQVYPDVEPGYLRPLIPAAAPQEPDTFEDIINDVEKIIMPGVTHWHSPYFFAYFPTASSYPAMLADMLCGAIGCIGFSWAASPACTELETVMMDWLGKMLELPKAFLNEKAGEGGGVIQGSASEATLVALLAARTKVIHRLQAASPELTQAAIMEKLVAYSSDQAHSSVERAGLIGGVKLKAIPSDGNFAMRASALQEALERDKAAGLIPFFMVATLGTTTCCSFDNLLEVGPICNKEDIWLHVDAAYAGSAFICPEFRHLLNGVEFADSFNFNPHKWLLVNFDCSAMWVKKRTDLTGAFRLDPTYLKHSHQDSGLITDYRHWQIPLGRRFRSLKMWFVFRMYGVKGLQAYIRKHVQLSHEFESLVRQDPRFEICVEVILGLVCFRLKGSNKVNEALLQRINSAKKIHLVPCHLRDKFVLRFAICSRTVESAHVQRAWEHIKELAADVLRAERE
T2 sequence (P35520 1-413): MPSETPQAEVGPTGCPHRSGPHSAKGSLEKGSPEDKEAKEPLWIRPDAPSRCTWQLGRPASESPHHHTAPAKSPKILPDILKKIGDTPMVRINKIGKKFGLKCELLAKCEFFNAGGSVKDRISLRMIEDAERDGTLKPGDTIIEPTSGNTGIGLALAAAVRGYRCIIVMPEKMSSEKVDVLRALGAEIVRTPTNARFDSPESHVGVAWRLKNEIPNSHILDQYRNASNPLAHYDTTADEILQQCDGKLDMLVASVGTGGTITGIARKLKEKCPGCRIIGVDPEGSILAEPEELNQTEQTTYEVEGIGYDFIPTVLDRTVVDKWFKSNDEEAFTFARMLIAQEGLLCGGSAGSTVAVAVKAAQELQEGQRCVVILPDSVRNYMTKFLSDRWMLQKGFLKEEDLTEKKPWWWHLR

`Cn1nc(Cc2ccccc2)nc2c(=O)n(C)c(=O)nc1-2` [CH004, 3-benzyl-1,6-dimethylpyrimido[5,4-e][1,2,4]triazine-5,7(1H,6H)-dione] was tested, and the “Fold selectivity hDDC vs hCBS-413” value ([1]; IC50 of hDDC / IC50 of hCBS-413) was > 400 (> 400) fold, the IC50 ([1]; standard conditions) was over 400000 nM and the Kd [2] was 600 ± 300 nM. For the same compound, the “maximum increase of cellular ROS” value (HepG2 cells) was ~ 2 fold.
